The values below come from patent EP1118615A1, “NOVEL SALTS OF PYRIDOPYRAZINE COMPOUND AND CRYSTALS THEREOF” (FUJISAWA PHARMACEUTICAL CO., LTD., priority 1998, dated 2000).

Test [1] deals with DGalN/LPS-induced rat hepatitis model. The experiment in a line: (B1) DGalN/LPS-induced rat hepatitis model. Type of test: in vivo, Wistar rats. The note with it: oral, 24 hr after DGalN/LPS. The method, then:
(B1) DGalN/LPS-induced rat hepatitis model
[Method] Male Wistar rats aged 12 weeks were deprived of food for 24 hours and dosed orally with the drug or the solvent vehicle in predetermined doses. Immediately thereafter, saline was administered from the tail vein to the NORMAL group and D-galactosamine hydrochloride (DGalN) (300 mg/kg)/LPS (0.32 µg/kg) was administered similarly to the CONTROL and DRUG groups. At 24 hr after administration of DGaIN/LAS, the blood was drawn and the liver isolated. Using the blood, liver-derived enzymes (ALT and AST) in plasma were assayed. The liver was fixed in formalin and phathological specimens were prepared. Histopathological findings (inflammatory cell infiltration and liver cell necrosis) were evaluated.

For test [2], the system named is P. acnes/LPS-induced mouse hepatitis model. The experiment in a line: (B4) P. acnes/LPS-induced mouse hepatitis model. The following applies: oral, 9 hours after administration of the drug. Format: in vivo, ICR mice. The procedure:
(B4) P. acnes/LPS-induced mouse hepatitis model
[Method] Propionibacterium acnes (P. acnes) killed by heat treatment was lyophilized and used in the experiment. To 7-week-old male ICR mice, either saline or P. acnes, 0.6 mg/0.2 ml/mouse, was administered intravenously. After 7 days, the drug or the solvent vehicle was administered orally in predetermined doses to the animals deprived of food for 20 hours. At. 9 hours after administration of the drug, the blood was drawn and the liver-derived enzymes (ALT and AST) in plasma were assayed.

The test system of another test is IL-2. The experiment in a line: (A3) Anti-CD3/CD28 antibody-stimulated cytokine production inhibitory activity in PBMC, ELISA: IL-2. The note with it: Homo sapiens, anti-CD3 and anti-CD28 antibodies, 24-hr culture supernatant. Format: cell-based. The procedure: (§1) (A3) Anti-CD3/CD28 antibody-stimulated TNF α production inhibitory activity in human peripheral blood monocytes (PBMC)
(§2) [Method] Monocytes isolated from healthy adult male volunteers were cultured and stimulated with anti-CD3 and anti-CD28 antibodies and the amounts of TNF, INF, 1L-2, IL-4 and IL-10 in the 24-hr culture supernatant were determined by ELISA.
In general terms: An ELISA detects its analyte on a solid surface through an enzyme-linked reagent.

Test [3] concerns ConA (concanavalin A) -induced mouse hepatitis model. Description: (B3) ConA (concanavalin A)-induced mouse hepatitis model. The note with it: 18 hours after ConA. Type of test: in vivo, Balb/c mice. The method, then: (B3) ConA (concanavalin A) -induced mouse hepatitis model
[Method] Male Balb/c mice aged 9 weeks were deprived of food for 20 hours and the drug or the solvent vehicle was administered orally in predetermined doses. After 1 hour, saline was administered intravenously to the NORMAL group and concanavalin A, 0.4 mg/mouse, was administered similarly to the CONTROL and DRUG groups. At 18 hours after administration of ConA, the blood was drawn and the liver isolated. Using the blood, the liver-derived enzymes (ALT and AST) in plasma were assayed. The liver was fixed in formalin and pathological specimens were prepared. Histopathological findings (inflammatory cell infiltration and liver cell necrosis) were evaluated.

The test system of a further test is IL-4. Description: (A3) Anti-CD3/CD28 antibody-stimulated cytokine production inhibitory activity in PBMC, ELISA: IL-4. Type of test: cell-based. The note with it: Homo sapiens, anti-CD3 and anti-CD28 antibodies, 24-hr culture supernatant. The method, then:
as §1, §2

As usually defined, the IC50 is the concentration needed to halve the response being measured. A high value points to a need for much substance. Consider `CS(=O)(=O)O.O.O.O=C(Nc1cccc(-n2c(=O)c(Cc3cccnc3)nc3cccnc32)c1)c1cc(Cl)cc(Cl)c1` [Example 2, 4-(3-(3,5-dichlorobenzoylamino)phenyl)-2-(3-pyridyl)methyl-3-oxo-3,4-dihydropyrido[2,3-b]pyrazine methanesulfonate dihydrate], for which the “elevation of blood ALT” value in test [1], in test [2] and in test [3] (oral 1 hour before ConA) was “significantly inhibited” each time. The “elevation of blood AST” value in test [1], in test [2] and in test [3] (oral 1 hour before ConA) was “significantly inhibited” in each case. Besides, the inflammatory cell infiltration entry is on record as “inhibited” in test [1] (histopathology) and “inhibited” in test [3] (oral, histopathology). The liver cell necrosis entry is on record as “inhibited” in test [1] (histopathology) and “inhibited” in test [3] (oral, histopathology). Moreover, the IC50 in the test on IL-2 is 130 nM; in the test with IL-4, 155 nM.
